Key:
CEPs = test: Circulating endothelial progenitor cell (CEP) levels in peripheral blood by flow cytometry, non-tumor bearing mice; assay type: in vivo; conditions: non-tumor bearing Balb/c mice; AMD-3100 5 mg/kg, CA1P 100 mg/kg; 4 hours or 24 hours post-treatment; FIG. 1
Protocol: Non-tumor bearing Balb/c mice (8-10 weeks old) were treated with one of the following agents: (i) 5 mg/kg of AMD-3100, a specific CXCR-4 antagonist; (ii) 100 mg/kg of CA1P, a VDA; or (iii) a combination of AMD-3100 and CA1P. At either 4 hours or 24 hours post-treatment, mice were bled from the retro-orbital sinus to evaluate levels of CEPs by flow cytometry.

[1] = test system: MeWo human melanoma cells; test: MeWo melanoma tumors (500 mm^3) in nude mice: SDF-1/CXCR4 staining, necrosis, hypoxia, perfusion; assay type: in vivo; conditions: day 4
Protocol: MeWo human melanoma cells were implanted subdermally in nude mice. When tumors reached 500 mm^3, treatment with CA1P, AMD-3100 or the combination of the two drugs was initiated. CA1P was given as a single injection and AMD-3100 was given in a concentration of 5 mg/kg for 3 sequential days. On day 4, mice were sacrificed and tumors harvested for evaluation of the expression of human SDF-1 and mouse CXCR4, as well as tumor necrosis, hypoxia and vessel perfusion.
Longitudinal tumor sections were stained for either SDF-1 or mouse CXCR4 expression.
FIG. 2 provides a statistical quantification of the relative necrosis area in all tumors from treated and untreated mice. Hypoxic tumor area and perfused tumor area was also measured for all treated and untreated tumors using pimonidazole and Hoechst staining respectively (see FIG. 3).

SDF-1 [2] = test: Plasma SDF-1 by ELISA in nude mice after VDA treatment; assay type: in vivo; conditions: both tumor-free and 500 mm^3 MeWo tumor-bearing nude mice; 4 hours after treatment
Protocol: To investigate the possibility that systemic induction of SDF-1 is involved in the acute mobilization of CEPs by VDA treatment, plasma from non-tumor or 500 mm^3 MeWo human melanoma bearing nude mice obtained 4 hours after treatment with CA1P was analyzed for human and mouse SDF-1 using specific ELISAs. From this analysis, it was determined that an acute 2 fold increase in SDF-1 occurs in both tumor-free and tumor-bearing nude mice following CA1P treatment. […] Thus, there is a rapid host proangiogenic reaction in response to VDA treatment similar to that observed in mice.

[3] = test system: Lewis-Lung Carcinoma (LLC) cells; test: Lewis-Lung Carcinoma tumors in irradiated mice transplanted with GFP+ bone marrow: necrosis and bone marrow cell incorporation; assay type: in vivo; conditions: LLC tumors in C57Bl mice with GFP+ bone marrow; day 4
Protocol: To assess the incorporation of bone marrow proangiogenic cells to the tumor site, Lewis-Lung Carcinoma (LLC) cells were implanted into the flanks of lethally irradiated C57Bl mice that were previously transplanted with GFP+bone marrow tagged cells. When tumors reached 500 mm^3, treatment with CA1P, AMD-3100 or the combination of the two was initiated. AMD-3100 was given in a concentration of 5 mg/kg for 3 sequential days. On day 4, mice were sacrificed and tumors removed for the evaluation of bone marrow derived cell (GFP+ cells) invasion and incorporation into tumor blood vessels (CD31+ cells). Tumors were also evaluated for necrosis by green fluorescence, as necrotic tissue is auto-fluorescent under GFP (fluorescent) channel.

SDF-1 [4] = test: Clinical data from cancer patients with advanced solid tumors treated with a VDA; assay type: in vivo, human; conditions: 12 cancer patients with advanced solid tumors; 4 hours after treatment
[5] = MeWo tumors, CA1P single injection, AMD-3100 5 mg/kg for 3 sequential days

Structure (SMILES): c1cc(CN2CCCNCCNCCCNCC2)ccc1CN1CCCNCCNCCCNCC1 [AMD-3100, 1,1′-[1,4-phenylenebis(methylene)]-bis-1,4,8,11-tetra-azacyclotetradecane]
- CEP levels in peripheral blood (CEPs): rapid and significant increases

Structure (SMILES): COc1cc(/C=C\c2ccc(OC)c(OP(=O)(O)O)c2OP(=O)(O)O)cc(OC)c1OC [CA1P, combretastatin A-1 diphosphate]
- human SDF-1 levels in tumors ([1]; MeWo tumor sections): upregulation
- invasion of mouse CXCR4+ cells to the tumor site ([1]; MeWo tumor sections): invasion of mouse CXCR4+ cells to the tumor site
- tumor hypoxia (pimonidazole staining) [1, 5]: ~12%
- tumor necrosis (area of total tumor area) [1, 5]: ~30%
- tumor perfusion (Hoechst staining) [1, 5]: ~7%
- increase in plasma SDF-1 (SDF-1 [2]): 2 fold
- bone marrow derived (GFP+) cell homing to tumor site and incorporation into tumor blood vessels (CD31+) [3]: recruits bone marrow derived proangiogenic cells to tumors
- CEP levels in peripheral blood (CEPs): rapid and significant increases

Structure (SMILES): COc1ccc(/C=C\c2cc(OC)c(OC)c(OC)c2)cc1OP(=O)(O)O [CA4P, combretastatin A-4 phosphate]
- circulating SDF-1 plasma levels (SDF-1 [4]): substantially increased
- number of CD133 and CD34 positive cells (SDF-1 [4]): substantially increased

— patent publication US20080214509A1, “Methods for enhancing the efficacy of vascular disrupting agents” (priority 2007, published 2008)
